Source: US20240109914A1, “IMIDAZOTHIAZOLE COMPOUNDS AND ANALOGS THEREOF AND METHODS FOR TREATING NEMATODE INFECTIONS IN PLANTS” (The Governing Council of The University of Toronto, priority 2021, published 2024)
Where two headings read alike, the source gives them in different places.

Experiments:
M. hapla eggs = test: Meloidogyne hapla in vitro egg hatch assay; assay type: in vivo; conditions: 45 μM; for Number of Hatched Eggs: 8 days at room temperature, about 90 eggs per well, tested once; for Number of Hatched Eggs z-score: 8 days, z-score vs 8 untreated DMSO wells
Procedure: The M. hapla were originally obtained from a soil sample of muck soil from Ste-Clotilde, Quebec, Canada. Using tweezers, egg masses were carefully removed from root material from infested carrot roots. Eggs were liberated from the egg masses using a mild sodium hypochlorite bleaching protocol, whereby egg masses were bleached with a 10% commercial bleach (sodium hypochlorite) solution for 4 minutes with vigorous shaking, and then washed 5 times with deionized water. 50 μL of deionized water was added to each well of two 96-well polystyrene culture plates, and 0.5 μL of chemical (or DMSO alone) was added to each well. Approximately 90 eggs were added to each well in 49.5 ul of deionized water. The plates were sealed with parafilm and incubated for 8 days at room temperature without shaking in a Tupperware box filled with wet paper towels. After the 8-day incubation, the number of hatched eggs was counted for each treatment and for the untreated controls. Each chemical treatment was tested only once. 8 separate untreated DMSO controls were included in the experiment. The z-score for each treatment was calculated using the mean and standard deviation of the untreated DMSO control wells.

C. elegans = C. elegans dose-response (viability, minimum lethal concentration); assay type: in vivo, Caenorhabditis elegans; conditions: Caenorhabditis elegans, 72 h, L1 worms, 3 days at 20° C.
Procedure: Forty microliters of an HB101 E. coli bacterial suspension in liquid NGM (nematode growth media—see ref. 42 for the recipe) was added to each well of a 96-well flat-bottom culture plate, after which approximately 25 synchronized L1 worms, in 10 μl of M9 buffer (see ref. 43 for the recipe), were added to each well. The synchronized L1 worms were obtained from an embryo preparation performed the previous day (see ref. 43 for the protocol). For the L1 assays, 0.5 μl of test compound solution (or DMSO alone) was immediately added to the wells using a multichannel pipette; the final DMSO concentration is 1% (v/v). The worms were incubated for 3 days at 20° C. and the number of viable animals was counted.
At least three biological replicates were performed for each dose-response assay. For each biological replicate, two technical replicates were performed and the numbers of viable animals for each technical replicate were combined (i.e. ˜ 50 worms assayed per concentration). The number of viable worms at each concentration was divided by the corresponding DMSO control value to give the “relative viability” for each concentration. The “relative viability” values were then averaged across the biological replicates. Minimum lethal concentration was defined as the lowest concentration at which at least 20% of worms die.

M. incognita J2 larvae = test: Meloidogyne incognita in vitro larval mobility assay; assay type: in vivo; conditions: 45 μM, 4 days; for Replicate 1 z-score / Replicate 2 z-score: z-score vs untreated DMSO wells; for pest or weed control at 45 µM: Meloidogyne incognita, 96 h
Procedure: M. incognita (Kofoid & White) Chitwood Race 1 (originally isolated in Maryland) was used for all experiments, and was maintained on pepper (Capsicum annuum L.) cv. PA-136 in a greenhouse as previously described^44. Infective J2 juveniles were collected as described in ref. 45. The microwell dose-response experiments were carried out similarly to previously described protocols^44,46. In brief, 50 μL of deionized water was added to the wells of 96-well polystyrene plates and 0.5 μL of test compound (or DMSO alone) was added to each well. Approximately 35 J2s were then added to each well in 49.5 μL of deionized water. The chemicals were tested at 45 μM, and the final concentration of DMSO in each well was 0.5% (v/v). DMSO alone was added to 3 separate wells. The plates were covered with plastic adhesive strips, and the lids of the plates were sealed with parafilm. The plates were incubated at 25° C. without shaking for 4 days. The percent of worms that were immobile (% immobile) was quantified by counting the number of immobile worms after 4 days of incubation, dividing the number of immobile worms by the total number of worms in the well, and then multiplying by 100. Two replicates were performed for each treatment. The z-score for each treatment was calculated using the mean and standard deviation of the untreated DMSO control wells. The average % immobile value was calculated across the two replicates. A test compound was considered most promising if the z-score was greater than 1.645 in both replicates.

M. incognita = test: Meloidogyne incognita infectivity assay (soil, tomato roots); assay type: in vivo; conditions: Meloidogyne incognita, 1344 h, 45 μM in soil, 8 weeks, eggs per mg root relative to DMSO control, read-out: % effectiveness at inhibiting reproduction of M. incognita
Text: An M. incognita population originally collected from grape (Vitis vinifera) in Parlier, California, was used for all experiments, and they were maintained on tomato plants (Solanum lycopersicum ‘Rutgers’) as previously described^47. Infective J2 juveniles were collected as described in ref. 47.

tomato plants = test: Root mass of tomato plants in the soil infectivity assay; conditions: 45 μM in soil, 8 weeks
Procedure: For the infectivity assays, 90 grams of soil (1:1 sand:loam mix) was added to each cell of several 6-cell plastic garden packs. The soil was drenched with 18 mL of deionized water containing dissolved test compound or DMSO alone. 2,500 infective J2 juveniles were then added to the soil in 2 mL of deionized water, for a total water volume of 20 mL. […] The DMSO concentration varied from 0.1% to 0.8% (v/v) depending on the stock concentration of the test compound. The highest DMSO concentration was used as the DMSO control. The J2s were incubated in the soil and chemical for 24 hours, after which two- to three-week old tomato seedlings were transplanted into the soil (one plant per cell). Two replicates were performed for each chemical treatment, and four replicates were done for the DMSO controls. The whole experiment was replicated twice, in two different batches on two different days, for a total of four replicates for each test compound treatment, and eight replicates for the DMSO controls. Inoculated plants were grown for 8 weeks in a greenhouse, as described^47, under long-day conditions (16-h photoperiod) with 26/18° C. day/night temperatures. After 8 weeks, the plants were destructively harvested. The tops were removed and discarded, and roots were gently washed with water to remove adhering soil. Eggs were extracted by placing rinsed roots in 0.6% sodium hypochlorite and agitating at 300 rpm for 3 min. Roots were then rinsed over nested 250—and 25.4-μm sieves, with eggs collected from the latter and suspended in water. Roots were dried in a 65° C. oven for at least 24 hours, after which dry roots were weighed. The number of eggs from each plant root was counted on a dissection microscope using a haemocytometer, and the number of eggs per milligram of root was calculated by dividing the total egg number by the mass of the dried root material. An average was taken across the replicates performed on the same day, and then normalized to the DMSO control average. […] An average percent effectiveness value was then calculated across the two different batches carried out on different days.

[1] = lowest concentration at which at least 20% of worms die, read-out: Minimum Lethal Concentration
[2] = same values in ppm, read-out: Minimum Lethal Concentration (ppm)
[3] = average of the two replicates, read-out: Average % Immobile
[4] = replicate 1, read-out: Replicate 1 % Immobile
[5] = replicate 2, read-out: Replicate 2 % Immobile

Row | Structure (SMILES) | Number of Hatched Eggs (M. hapla eggs) | Number of Hatched Eggs z-score (M. hapla eggs) | minimal effective concentration (C. elegans; [1]) [µM] | minimal effective concentration (C. elegans; [2]) [µg/mL] | Replicate 1 z-score (M. incognita J2 larvae; replicate 1) | Replicate 2 z-score (M. incognita J2 larvae; replicate 2) | pest or weed control at 45 µM (M. incognita J2 larvae; [3]) [%] | pest or weed control at 45 µM (M. incognita J2 larvae; [4]) [%] | pest or weed control at 45 µM (M. incognita J2 larvae; [5]) [%] | pest or weed control at 45 µM (M. incognita) [%] | Normalized root mass (relative to DMSO control) (tomato plants) | Number of Hatched Eggs (M. hapla eggs; listed as 1-84) | Number of Hatched Eggs (M. hapla eggs; listed as 1-48)
1 | Ic1ccccc1-c1cn2ccsc2n1 [I-43] | 4 | [3.31] | 50 | 16.3 | – | – | – | – | – | – | – | – | –
2 | CCc1ccc(-c2nc3sccn3c2C)cc1 [I-8] | – | – | 50 | 12.1 | – | – | – | – | – | – | – | – | –
3 | Ic1cccc(-c2cn3ccsc3n2)c1 [I-42] | – | – | 25 | 8.2 | [5.89] | [11.03] | 61.1 | 51.5 | 70.7 | – | – | – | –
4 | Clc1cccc(-c2cn3ccsc3n2)c1 [I-23] | 1 | [4.30] | 100 | 23.5 | [14.66] | [13.61] | ≥ 75 | 94.4 | 85 | – | – | – | –
5 | Cc1c(-c2ccccc2Cl)nc2sccn12 [I-28] | – | – | > 100 | > 24.9 | – | – | – | – | – | 17.4 | 1.37 | – | –
6 | CCc1ccc(-c2cn3c(C)csc3n2)cc1 [I-9] | 2 | [3.97] | 100 | 24.2 | – | – | – | – | – | – | – | – | –
7 | Cc1c(-c2ccccc2F)nc2sccn12 [I-19] | – | – | > 100 | > 23.2 | – | – | – | – | – | 16.6 | 1.27 | – | –
8 | Cc1cn2cc(-c3cccc(Br)c3)nc2s1 [I-37] | – | – | > 100 | > 29.3 | – | – | – | – | – | 21.6 | 1.31 | – | –
9 | Cc1cn2cc(-c3cccc(Cl)c3)nc2s1 [I-26] | – | – | 25 | 6.2 | [6.47] | [1.92] | 37.4 | 54.4 | 20.4 | 0 | 1.43 | – | –
10 | Fc1ccccc1-c1cn2ccsc2n1 [I-18] | – | – | – | – | – | – | – | – | – | 0 | 1.13 | – | –
11 | Cc1csc2nc(-c3cccc(F)c3)cn12 [I-16] | – | – | > 100 | > 23.2 | – | – | – | – | – | 0 | 1.15 | – | –
12 | CC(C)(C)c1ccc(-c2cn3ccsc3n2)cc1 [I-12] | – | – | 100 | 25.6 | – | – | – | – | – | – | – | – | –
13 | Nc1ccc(-c2cn3ccsc3n2)cc1 [I-44] | – | – | > 100 | > 21.5 | – | – | – | – | – | – | – | – | –
14 | Cc1ccc(-c2cn3ccsc3n2)cc1C [I-6] | – | – | > 100 | > 22.8 | [4.25] | [3.22] | 35.5 | 43.5 | 27.6 | – | – | – | –
15 | Cc1ccc(-c2cn3c(C)csc3n2)cc1 [I-4] | 4 | [3.31] | 100 | 22.8 | – | – | – | – | – | – | – | – | –
16 | Cc1csc2nc(-c3ccccc3F)cn12 [I-20] | – | – | > 100 | > 23.2 | – | – | – | – | – | – | – | – | –
17 | Brc1ccccc1-c1cn2ccsc2n1 [I-38] | – | – | 100 | 27.9 | – | – | – | – | – | 0 | 1.21 | – | –
18 | Clc1ccc(-c2cn3ccsc3n2)c(Cl)c1 [I-32] | – | – | 6.25 | 1.7 | – | – | – | – | – | 4.4 | 1.31 | – | –
19 | O=Cc1c(-c2ccccc2)nc2sccn12 [I-122] | 1 | [4.30] | – | – | [14.96] | [12.31] | ≥ 75 | 95.9 | 77.8 | – | – | – | –
20 | Clc1ccc(-c2cn3ccsc3n2)s1 [I-84] | 0 | [4.63] | – | – | [13.56] | [16.33] | ≥ 75 | 89.1 | 100 | – | – | completely inhibited egg hatching | –
21 | CCc1cccc(-c2cn3ccsc3n2)c1 [I-11] | 3 | [3.64] | 100 | 22.8 | – | – | – | – | – | – | – | – | –
22 | Brc1cccc(-c2cn3ccsc3n2)c1 [I-34] | 1 | [4.30] | 50 | 14 | [15.00] | [14.11] | ≥ 75 | 96.1 | 87.8 | – | – | – | –
23 | Cc1csc2nc(-c3cccc(Br)c3)cn12 [I-36] | – | – | > 100 | > 29.3 | – | – | – | – | – | – | – | – | –
24 | Cc1c(-c2ccccc2Br)nc2sccn12 [I-39] | – | – | > 100 | > 29.3 | – | – | – | – | – | – | – | – | –
25 | Cc1ccc(-c2cn3ccsc3n2)cc1 [I-2] | – | – | 50 | 14.8 | [14.54] | [6.03] | 68.5 | 93.8 | 43.1 | – | – | – | –
26 | Cc1c(-c2cccc(F)c2)nc2sccn12 [I-15] | – | – | > 100 | > 23.2 | – | – | – | – | – | 5.8 | 1.35 | – | –
27 | Brc1ccc(-c2cn3c(n2)SCC3)cc1 [I-48] | 0 | [4.63] | – | – | [15.80] | [5.11] | 69 | 100 | 38 | – | – | – | completely inhibited egg hatching
28 | Cc1ccc(-c2nc3sccn3c2C)cc1 [I-3] | – | – | > 100 | > 22.8 | [6.94] | [2.76] | 40.8 | 56.7 | 25 | – | – | – | –
29 | Cc1csc2nc(-c3ccccc3Br)cn12 [I-40] | – | – | > 100 | > 29.3 | – | – | – | – | – | – | – | – | –
30 | Cc1ccc(-c2cn3cc(C)sc3n2)cc1 [I-5] | – | – | 25 | 5.7 | – | – | – | – | – | – | – | – | –
